Experimental data reported in article PMC8156151 (The European Respiratory Journal, 2021).
Where two headings read alike, the source gives them in different places.

Key:
[1] = test system: HGF; assay: Plasma biomarker HGF; format: in vivo, human; details: for HGF raw data, Mean (SD) / HGF least square means % baseline±SEM: IPF patients
Procedure: (§1) All patients, investigators, sites and study sponsor personnel were blinded to the study group assignments throughout the study. Patients underwent study-specific assessments on days 2, 3, 7, 14 and 15, and a post-study assessment was carried out 26–30 days after the last day of the study period. Assessments included vital signs (supine blood pressure, pulse, oxygen saturation, oral temperature and respiratory rate), spirometry, 12-lead ECG, physical examination, laboratory safety screen (haematology, biochemistry, urinalysis and urinary drugs of abuse screen) and blood sampling for PK measurements. All adverse events and concomitant medications were recorded from the time of the screening visit until the post-study follow-up visit. BAL was performed at day −1 (24 h before the first dose) and at day 14 (2 h after the last dose). The BAL procedure was performed as per international guidelines. Briefly, 240 mL of 0.9% saline at room temperature was instilled in 40 mL aliquots into the right middle lobe and aspirated by suction after each aliquot.
(§2) BAL cells were separated from fluid by centrifugation, and cells were collected, stained with antibodies (supplementary material) and then fixed before analysis using a LSR Fortessa flow cytometer (Becton Dickinson, Franklin Lakes, NJ, USA). Data were analysed using FlowJo software (Tree Star, Ashland, OR, USA). Macrophages were identified as having high side scatter properties and human leukocyte antigen-DR positivity. Gal-3 expression (mean fluorescence intensity) was determined from the macrophage gate (supplementary figures S1 and S2). […] Samples were analysed by magnetic Luminex assay (R&D Systems, Minneapolis, MN, USA) or ELISA.
(§3) For part 2 of the study, placebos were combined from the three dose-specific cohorts into a pooled control group (n=9). For alveolar macrophage Gal-3 expression and the plasma biomarkers, ANCOVA was performed for percentage of baseline ((day 14/day 1)×100). The ANCOVA model included effects for treatment group and baseline (day 1) value. […] An additional analysis including dose as a continuous covariate was also performed. The Pearson correlation coefficient (r) and associated p-value were calculated for percentage of baseline and day 14 values between plasma biomarkers and alveolar macrophage Gal-3 expression. […] The analysis is exploratory and there was no pre-planned adjustment for multiple testing; the study was not powered for this. Alveolar macrophage Gal-3 expression was considered the primary exploratory analysis with the pre-selected biomarkers secondary. A Bonferroni correction for multiple testing of the secondary end-points comparing the 10 mg group with placebo gives a critical value of 0.0063. Data are presented as the difference in least square means with 95% confidence interval and p-value unless otherwise stated. All analyses were performed using SAS version 9.4 (SAS Institute, Cary, NC, USA). […]

[2] = test system: SP-D; assay: Plasma biomarker SP-D; format: in vivo, human; details: for SP-D raw data, Mean (SD) / SP-D least square means % baseline±SEM: IPF patients
Procedure: as §1, §2, §3

[3] = test system: CCL18 (PARC); assay: Plasma biomarker CCL18; format: in vivo, human; details: IPF patients
Procedure: as §1, §2, §3

[4] = test system: CCL5 (RANTES); assay: Plasma biomarker CCL5; format: in vivo, human; details: for CCL5 (RANTES) raw data, Mean (SD) / CCL5 (RANTES) least square means % baseline±SEM: IPF patients
Procedure: as §1, §2, §3

[5] = molecular target: Gal-3 (Homo sapiens, UniProt P17931); details: for Galectin-3 (BAL) raw data, Mean (SD): Day 14
Sequence of Gal-3 (P17931 whole entry): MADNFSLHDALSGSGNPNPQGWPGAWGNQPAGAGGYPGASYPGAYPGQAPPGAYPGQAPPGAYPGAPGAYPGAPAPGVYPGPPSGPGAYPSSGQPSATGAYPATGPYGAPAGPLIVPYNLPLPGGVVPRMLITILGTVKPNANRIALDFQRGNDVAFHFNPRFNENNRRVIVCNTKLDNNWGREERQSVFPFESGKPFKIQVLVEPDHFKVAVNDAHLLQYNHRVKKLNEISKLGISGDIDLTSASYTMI
Procedure: as §1, §2
For part 2 of the study, placebos were combined from the three dose-specific cohorts into a pooled control group (n=9). For alveolar macrophage Gal-3 expression and the plasma biomarkers, ANCOVA was performed for percentage of baseline ((day 14/day 1)×100). The ANCOVA model included effects for treatment group and baseline (day 1) value. […] An additional analysis including dose as a continuous covariate was also performed. The Pearson correlation coefficient (r) and associated p-value were calculated for percentage of baseline and day 14 values between plasma biomarkers and alveolar macrophage Gal-3 expression. […] The analysis is exploratory and there was no pre-planned adjustment for multiple testing; the study was not powered for this. Alveolar macrophage Gal-3 expression was considered the primary exploratory analysis with the pre-selected biomarkers secondary. A Bonferroni correction for multiple testing of the secondary end-points comparing the 10 mg group with placebo gives a critical value of 0.0063. Data are presented as the difference in least square means with 95% confidence interval and p-value unless otherwise stated. All analyses were performed using SAS version 9.4 (SAS Institute, Cary, NC, USA).
BAL cells were separated from fluid by centrifugation and BAL cells were collected, stained with antibodies then fixed before analysis using a LSRFortessa™ flow cytometer (Becton Dickinson, NJ, USA). Data were analysed using FlowJo software (Becton Dickinson, NJ, USA). After exclusion of doublets and debris a sequential gating strategy was employed to identify cell populations based on surface marker expression. The antibodies used were Gal-3-FITC, CD19-PE, HLA-DR PEcy7, CD14-APC, CD16-pacific-blue, CD11b perCPcy5.5, […]
Biolegend except Gal-3-FITC which was from Cedarlane. Macrophages were identified as having high side scatter properties and HLA-DR positivity. Gal-3 expression (mean fluorescence intensity, MFI) was determined from the macrophage gate. Macrophage subsets were classed as M1, M2a and M2c based on the relative expression of CD206 and CD163 as […]
ve gate the relative % of neutrophils (CD19-/CD16+), B cells (CD19+), natural killer (NK) cells (CD56+), NK T-cells (NKT) cells (CD56+/CD3+), CD4 T cells (CD3+/CD4+) and CD8 T cells

[6] = test system: PTX3; assay: Plasma biomarker PTX3; format: in vivo, human; details: for Pentraxin-3 (PTX3) raw data, Mean (SD) / PTX3 least square means % baseline±SEM: IPF patients
Procedure: as §1, §2, §3

[7] = test system: MMP-1; assay: Plasma biomarker MMP-1; format: in vivo, human; details: for MMP-1 raw data, Mean (SD) / MMP-1 least square means % baseline±SEM: IPF patients
Procedure: as §1, §2, §3

Gal-3 expression on BAL macrophages, percentage of baseline at day 14, difference compared with placebo ([5]; 3 mg dose group): −38.66% | Gal-3 expression on BAL macrophages, percentage of baseline at day 14, difference compared with placebo ([5]; 10 mg dose group): −44.63% | Gal-3 (BAL) Bayesian probability of effect ([5]; BAL macrophages, 10 mg vs placebo): 99.14 | Gal-3 (BAL) difference in least square means % baseline (95% CI) ([5]; BAL macrophages, 10 mg vs placebo, ANCOVA): −44.6 (−80.4– −8.8) % baseline | Galectin-3 (BAL) raw data, Mean (SD) ([5]; IPF patients, BAL macrophages, 0.3 mg): 7794.8 (2990.48) pg/ml | Galectin-3 (BAL) raw data, Mean (SD) ([5]; IPF patients, BAL macrophages, 3 mg): 8058.6 (3001.05) pg/ml | Galectin-3 (BAL) raw data, Mean (SD) ([5]; IPF patients, BAL macrophages, 10 mg): 5237 (2033.86) pg/ml | Gal-3 (BAL) least square means % baseline±SEM ([5]; IPF patients, BAL macrophages, day 14, 0.3 mg once daily): 67.9±12.1 % baseline | Gal-3 (BAL) least square means % baseline±SEM ([5]; IPF patients, BAL macrophages, day 14, 3 mg once daily): 43.0±11.7 % baseline | Gal-3 (BAL) least square means % baseline±SEM ([5]; IPF patients, BAL macrophages, day 14, 10 mg once daily): 37.1±13.5 % baseline | Galectin-3 (BAL), analysis including dose as a continuous covariate: Estimate ([5]; IPF patients, BAL macrophages, percentage of baseline): -4.19 | correlation between TD139 in AMs and percentage of baseline in surface macrophage Gal-3 (r) ([5]; IPF patients, day 14): −0.63 (95% CI −0.86– −0.18) | Emax (AM surface Gal-3 percentage of baseline) ([5]; fitted maximum effect model vs macrophage TD139 concentration, (95% CI)): 4.5 (−44.0–35.9)
SMILES: OC[C@H]1O[C@@H](S[C@@H]2O[C@H](CO)[C@H](O)[C@H](n3cc(-c4cccc(F)c4)nn3)[C@H]2O)[C@H](O)[C@@H](n2cc(-c3cccc(F)c3)nn2)[C@H]1O [TD139]
HGF difference in least square means % baseline (95% CI) ([1]; 10 mg vs placebo, ANCOVA): −37.2 (−85.5–11.2) % baseline | HGF raw data, Mean (SD) ([1]; Day 14, 0.3 mg): 109.8 (23.24) pg/ml | HGF raw data, Mean (SD) ([1]; Day 14, 3 mg): 159.1 (110.2) pg/ml | HGF raw data, Mean (SD) ([1]; Day 14, 10 mg): 131.2 (44.47) pg/ml | HGF least square means % baseline±SEM ([1]; day 14, 0.3 mg once daily): 100.3±17.5 % baseline | HGF least square means % baseline±SEM ([1]; day 14, 3 mg once daily): 103.2±16.9 % baseline | HGF least square means % baseline±SEM ([1]; day 14, 10 mg once daily): 73.2±18.8 % baseline | SP-D difference in least square means % baseline (95% CI) ([2]; 10 mg vs placebo, ANCOVA): 4.0 (−41.0–49.1) % baseline | SP-D raw data, Mean (SD) ([2]; Day 14, 0.3 mg): 38987.4 (10734.36) pg/ml | SP-D raw data, Mean (SD) ([2]; Day 14, 3 mg): 91473.6 (43437.58) pg/ml | SP-D raw data, Mean (SD) ([2]; Day 14, 10 mg): 30347 (3552.88) pg/ml | SP-D least square means % baseline±SEM ([2]; day 14, 0.3 mg once daily): 109.6±16.6 % baseline | SP-D least square means % baseline±SEM ([2]; day 14, 3 mg once daily): 111.7±18.2 % baseline | SP-D least square means % baseline±SEM ([2]; day 14, 10 mg once daily): 118.7±17.3 % baseline | CCL18 (PARC) raw data, Mean (SD) ([3]; Day 14, 0.3 mg): 79733.8 (25166.88) pg/ml | CCL18 (PARC) raw data, Mean (SD) ([3]; Day 14, 3 mg): 73022.7 (33487.12) pg/ml | CCL18 (PARC) raw data, Mean (SD) ([3]; Day 14, 10 mg): 53456.8 (11339.99) pg/ml | CCL18 (PARC) least square means % baseline±SEM ([3]; day 14, 0.3 mg once daily): 89.6±11.8 % baseline | CCL18 (PARC) least square means % baseline±SEM ([3]; day 14, 3 mg once daily): 98.9±12.0 % baseline | CCL18 (PARC) least square means % baseline±SEM ([3]; day 14, 10 mg once daily): 74.6±11.8 % baseline | CCL5 (RANTES) difference in least square means % baseline (95% CI) ([4]; 10 mg vs placebo, ANCOVA): −54.1 (−147–38.8) % baseline | CCL5 (RANTES) raw data, Mean (SD) ([4]; Day 14, 0.3 mg): 47658.1 (27017.8) pg/ml | CCL5 (RANTES) raw data, Mean (SD) ([4]; Day 14, 3 mg): 75675.6 (92820.57) pg/ml | CCL5 (RANTES) raw data, Mean (SD) ([4]; Day 14, 10 mg): 33994.2 (29435.9) pg/ml | CCL5 (RANTES) least square means % baseline±SEM ([4]; day 14, 0.3 mg once daily): 62.3±37.1 % baseline | CCL5 (RANTES) least square means % baseline±SEM ([4]; day 14, 3 mg once daily): 115.1±35.1 % baseline | CCL5 (RANTES) least square means % baseline±SEM ([4]; day 14, 10 mg once daily): 75.8±35.8 % baseline | PTX3 difference in least square means % baseline (95% CI) ([6]; 10 mg vs placebo, ANCOVA): −69.6 (−220.3–81.2) % baseline | Pentraxin-3 (PTX3) raw data, Mean (SD) ([6]; Day 14, 0.3 mg): 116.3 (214.7) pg/ml | Pentraxin-3 (PTX3) raw data, Mean (SD) ([6]; Day 14, 3 mg): 629.9 (581.55) pg/ml | Pentraxin-3 (PTX3) raw data, Mean (SD) ([6]; Day 14, 10 mg): 2534.7 (4451.2) pg/ml | PTX3 least square means % baseline±SEM ([6]; day 14, 0.3 mg once daily): 51.8±68.6 % baseline | PTX3 least square means % baseline±SEM ([6]; day 14, 3 mg once daily): 74.2±53.1 % baseline | PTX3 least square means % baseline±SEM ([6]; day 14, 10 mg once daily): 67.0±56.1 % baseline | MMP-1 difference in least square means % baseline (95% CI) ([7]; 10 mg vs placebo, ANCOVA): −102.1 (−251.4–47.3) % baseline | MMP-1 raw data, Mean (SD) ([7]; Day 14, 0.3 mg): 535.1 (449.22) pg/ml | MMP-1 raw data, Mean (SD) ([7]; Day 14, 3 mg): 1494.4 (647.67) pg/ml | MMP-1 raw data, Mean (SD) ([7]; Day 14, 10 mg): 537.5 (257.55) pg/ml | MMP-1 least square means % baseline±SEM ([7]; day 14, 0.3 mg once daily): 67.3±56.3 % baseline | MMP-1 least square means % baseline±SEM ([7]; day 14, 3 mg once daily): 107.1±59.1 % baseline | MMP-1 least square means % baseline±SEM ([7]; day 14, 10 mg once daily): 62.1±58.1 % baseline
